Test [1] concerns NKR strain. In kind it is cell-based, Burkholderia sp. N16-1 strain. As to conditions: Biolog GN plate; compounds in parentheses showed slight color development.
Test [2] has as its system NKR strain. In kind it is cell-based, Burkholderia sp. N16-1 strain. As to conditions: Example 3; SB soil pH 7.0; sucrose solution with M9 medium added on day 13 after inoculation.
In test [3] the test system is total cell count in the soil. The test can be described thus: Total cell count in soil inoculated with the NKR strain (DNB agar medium). The format is cell-based. As to conditions: Example 3; SB soil pH 7.0; sucrose solution with M9 medium (N, P and C source) added on day 13.

Consider 1 molecule from patent publication US6861235B1, “Method for controlling target microorganism” (priority 1998, dated 2005).

“Also recorded” adds a separate entry of the source.

For the molecule `OC[C@H]1O[C@@](CO)(O[C@H]2O[C@H](CO)[C@@H](O)[C@H](O)[C@H]2O)[C@@H](O)[C@@H]1O` [sucrose], the “assimilation by the NKR strain (color development of an oxidation-reduction indicator)” value in the test on NKR strain [1] is “does not assimilate; also recorded: no color development”. Besides, the “cell count of the NKR strain in the soil” value in the test with NKR strain [2] is given as “transiently increased but then starts to decline; also recorded: after a transient increase, decreased slightly”. For the same molecule, the “total cell counts in the soil” value in test [3] is reported as “increases in the total cell counts were observed”.
